target: T1, mouse GnRH receptor (Mus musculus, UniProt Q01776); experiment: Radioligand binding, 125I-GnRH-A, 293 cells expressing mouse GnRH receptors; conditions: 10 uM; read-out: % Inhib. @ 10 uM mGnRH
T1 construct: expressed in transfected cells; host or cells: 293 cells
T1 sequence (Q01776 1-327): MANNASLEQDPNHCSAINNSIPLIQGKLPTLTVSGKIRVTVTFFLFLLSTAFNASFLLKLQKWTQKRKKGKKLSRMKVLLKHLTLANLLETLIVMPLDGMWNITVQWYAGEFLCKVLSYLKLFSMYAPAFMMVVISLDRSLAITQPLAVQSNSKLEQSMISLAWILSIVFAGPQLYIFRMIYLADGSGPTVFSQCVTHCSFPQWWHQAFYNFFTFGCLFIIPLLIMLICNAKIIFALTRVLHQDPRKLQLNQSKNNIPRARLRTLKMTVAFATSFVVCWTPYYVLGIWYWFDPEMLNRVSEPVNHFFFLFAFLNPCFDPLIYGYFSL
How it was run: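 Bound label captured on 0.1% polyethyleneimine-treated GF/C filters, washed three times with PBS, counted. IC50 derived; identical set-up for every species.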

| Compound | inhibition at 10 µM |
| --- | --- |
| CCCCN(CC)CCNC(=O)c1ccc(Cc2cc3c(cc2C)C(C)(C)CCC3(C)C)o1 | 101% |
| Cc1cc2c(cc1Cc1ccc(C(=O)N3CCN(C(c4ccccc4)c4ccccc4)CC3)o1)C(C)(C)CCC2(C)C | 33% |
| Cc1cc2c(cc1Cc1ccc(C(=O)N(CCC(c3ccccc3)c3ccccc3)CC3CCCCC3)o1)C(C)(C)CCC2(C)C | 31% |
| COC(=O)C1SCCN1C(=O)c1ccc(Cc2cc3c(cc2C)C(C)(C)CCC3(C)C)o1 (centres unmarked) | 39% |
| Cc1cc2c(cc1Cc1ccc(C(=O)N(Cc3cccnc3)Cc3ccoc3)o1)C(C)(C)CCC2(C)C | 99% |
| Cc1cc2c(cc1Cc1ccc(C(=O)N3CCCCCCC3)o1)C(C)(C)CCC2(C)C [drawing 1433] | 88% |
| Cc1cc2c(cc1Cc1ccc(C(=O)N3CCN(CCO)CC3)o1)C(C)(C)CCC2(C)C [drawing 1429] | 69% |
| Cc1cc2c(cc1Cc1ccc(C(=O)N3CCN(CCN(C)C)CC3)o1)C(C)(C)CCC2(C)C | 98% |
| Cc1cc2c(cc1Cc1ccc(C(=O)NCC(F)(F)F)o1)C(C)(C)CCC2(C)C [drawing 1271] | 26% |
| COc1cccc(N2CCN(C(=O)c3ccc(Cc4cc5c(cc4C)C(C)(C)CCC5(C)C)o3)CC2C)c1 (centres unmarked) [drawing 1513] | 76% |
| Cc1cc2c(cc1Cc1ccc(C(=O)N(Cc3ccncc3)Cc3ccc4c(c3)OCO4)o1)C(C)(C)CCC2(C)C | 91% |
| Cc1cc2c(cc1Cc1ccc(C(=O)N(CCCN(C)C)CCCN(C)C)o1)C(C)(C)CCC2(C)C [drawing 1254] | 71% |
| CCCCC(CC)COCCCNC(=O)c1ccc(Cc2cc3c(cc2C)C(C)(C)CCC3(C)C)o1 (centres unmarked) | 58% |
| CC[C@H](C)C(CO)NC(=O)c1ccc(Cc2cc3c(cc2C)C(C)(C)CCC3(C)C)o1 (some centres unmarked) [drawing 1581] | 77% |
| Cc1cc2c(cc1Cc1ccc(C(=O)N3CCCCC3C(=O)NC(c3ccccc3)c3ccccc3)o1)C(C)(C)CCC2(C)C (centres unmarked) [drawing 1436] | 43% |
| Cc1cc2c(cc1Cc1ccc(C(=O)N(CCC#N)CC3CCCO3)o1)C(C)(C)CCC2(C)C (centres unmarked) | 95% |
| Cc1cc2c(cc1Cc1ccc(C(=O)NCCc3ccc(Cl)cc3)o1)C(C)(C)CCC2(C)C [drawing 1521] | 81% |
| COc1cc(CN(Cc2ccncc2)C(=O)c2ccc(Cc3cc4c(cc3C)C(C)(C)CCC4(C)C)o2)ccc1OCc1ccccc1 | 64% |
| CCN(C(=O)c1ccc(Cc2cc3c(cc2C)C(C)(C)CCC3(C)C)o1)C1CCCCC1 [drawing 1524] | 100% |
| CCN(CCCCO)C(=O)c1ccc(Cc2cc3c(cc2C)C(C)(C)CCC3(C)C)o1 | 94% |

| Compound | inhibition at 10 µM |
| --- | --- |
| COc1ccccc1CN(CCC(c1ccccc1)c1ccccc1)C(=O)c1ccc(Cc2cc3c(cc2C)C(C)(C)CCC3(C)C)o1 | 21% |
| Cc1cc2c(cc1Cc1ccc(C(=O)N(C)C3CCN(Cc4ccccc4)C3)o1)C(C)(C)CCC2(C)C (centres unmarked) | 98% |
| Cc1cc2c(cc1Cc1ccc(C(=O)N(C)CC3OCCO3)o1)C(C)(C)CCC2(C)C [drawing 1500] | 86% |
| CCSCCNC(=O)c1ccc(Cc2cc3c(cc2C)C(C)(C)CCC3(C)C)o1 [drawing 1588] | 99% |
| Cc1cc2c(cc1Cc1ccc(C(=O)N3CCCCC3C)o1)C(C)(C)CCC2(C)C (centres unmarked) | 100% |
| CCN1CC(N(Cc2ccc(N(C)C)cc2)C(=O)c2ccc(Cc3cc4c(cc3C)C(C)(C)CCC4(C)C)o2)CN1CC [drawing 1566] | 95% |
| Cc1cc2c(cc1Cc1ccc(C(=O)N3CC(C)CC(C)C3)o1)C(C)(C)CCC2(C)C (centres unmarked) [drawing 1446] | 90% |
| Cc1cc2c(cc1Cc1ccc(C(=O)NC(C)CCCC(C)C)o1)C(C)(C)CCC2(C)C (centres unmarked) [drawing 1447] | 72% |
| Cc1cc2c(cc1Cc1ccc(C(=O)NC[C@@H](C)c3ccccc3)o1)C(C)(C)CCC2(C)C | 70% |
| Cc1cc2c(cc1Cc1ccc(C(=O)N3CCCC3C)o1)C(C)(C)CCC2(C)C (centres unmarked) [drawing 1545] | 102% |
| Cc1cc2c(cc1Cc1ccc(C(=O)N(CCc3ccccc3)Cc3ccoc3)o1)C(C)(C)CCC2(C)C [drawing 1557] | 61% |
| Cc1cc2c(cc1Cc1ccc(C(=O)N(CCN(C)C)Cc3cccc4ccccc34)o1)C(C)(C)CCC2(C)C [drawing 1489] | 103% |
| Cc1cc2c(cc1Cc1ccc(C(=O)N3CCCC3CNc3ccccc3)o1)C(C)(C)CCC2(C)C (centres unmarked) | 53% |
| Cc1cc2c(cc1Cc1ccc(C(=O)N3CCCCC3C[C@H]3CCCN3C)o1)C(C)(C)CCC2(C)C (some centres unmarked) | 28% |
| Cc1cc2c(cc1Cc1ccc(C(=O)N(CCCO)CCC(C)CCCC(C)(C)O)o1)C(C)(C)CCC2(C)C (centres unmarked) | 99% |
| Cc1cc2c(cc1Cc1ccc(C(=O)N3CC=CCC3)o1)C(C)(C)CCC2(C)C [drawing 1430] | 69% |
| Cc1cc2c(cc1Cc1ccc(C(=O)NC(C)c3cccc4ccccc34)o1)C(C)(C)CCC2(C)C (centres unmarked) | 28% |
| Cc1cc2c(cc1Cc1ccc(C(=O)NCc3ccccc3-c3ccccc3)o1)C(C)(C)CCC2(C)C [drawing 1372] | 74% |
| COC(OC)C(C)NC(=O)c1ccc(Cc2cc3c(cc2C)C(C)(C)CCC3(C)C)o1 (centres unmarked) [drawing 1589] | 97% |
| Cc1cc2c(cc1Cc1ccc(C(=O)N(Cc3cccnc3)Cc3cccc(C(F)(F)F)c3)o1)C(C)(C)CCC2(C)C [drawing 1475] | 80% |

same assay, conditions: 1 h, substrate remaining; 10 uM compound; closer to zero = closer to 100% inhibition; read-out: S%R 10 uM mGnRHR

| Compound | remaining activity at 10 µM |
| --- | --- |
| Cc1cc2c(cc1Cc1ccc(C(=O)N(C)CCC3OCCO3)o1)C(C)(C)CCC2(C)C [Compound 619] | 5% |
| Cc1cc2c(cc1Cc1ccc(C(=O)N(Cc3cccnc3)Cc3cccn3C)o1)C(C)(C)CCC2(C)C [Compound 688] | 0% |
| Cc1cc2c(cc1Cc1ccc(C(=O)N3CC=CCC3)o1)C(C)(C)CCC2(C)C [Compound 543] | 31% |
| Cc1cc2c(cc1Cc1ccc(C(=O)NC3CCS(=O)(=O)C3)o1)C(C)(C)CCC2(C)C (centres unmarked) [Compound 626] | 10% |
| CCCNC(=O)c1ccc(Cc2cc3c(cc2C)C(C)(C)CCC3(C)C)o1 [Compound 687] | 7% |
| Cc1cc2c(cc1Cc1ccc(C(=O)Nc3ccc4[nH]c(-c5ccccn5)nc4c3)o1)C(C)(C)CCC2(C)C [Compound 477] | 47% |
| Cc1cc2c(cc1Cc1ccc(C(=O)N(CCN(C)C)Cc3ccccc3)o1)C(C)(C)CCC2(C)C [Compound 708] | -4% |
| Cc1cc2c(cc1Cc1ccc(C(=O)N(Cc3cccnc3)Cc3cccc(C(F)(F)F)c3)o1)C(C)(C)CCC2(C)C [Compound 551] | 21% |
| Cc1cc2c(cc1Cc1ccc(C(=O)NCCNc3cccc4ccccc34)o1)C(C)(C)CCC2(C)C [Compound 602] | 44% |
| Cc1cc2c(cc1Cc1ccc(C(=O)N3CC(C)OC(C)C3)o1)C(C)(C)CCC2(C)C (centres unmarked) [Compound 592] | 17% |
| CCCN(Cc1ccc([N+](=O)[O-])cc1)C(=O)c1ccc(Cc2cc3c(cc2C)C(C)(C)CCC3(C)C)o1 [Compound 589] | 35% |
| COc1cccc(N2CCN(C(=O)c3ccc(Cc4cc5c(cc4C)C(C)(C)CCC5(C)C)o3)CC2C)c1 (centres unmarked) [Compound 663] | 25% |
| Cc1cc2c(cc1Cc1ccc(C(=O)NCc3ccc(C(=O)O)cc3)o1)C(C)(C)CCC2(C)C [Compound 497] | 2% |
| Cc1cc2c(cc1Cc1ccc(C(=O)NC[C@@H]3CCCC[C@H]3O)o1)C(C)(C)CCC2(C)C [Compound 566] | 3% |
| CCN(CC)CCCNC(=O)c1ccc(Cc2cc3c(cc2C)C(C)(C)CCC3(C)C)o1 [Compound 707] | 0% |
| Cc1cc2c(cc1Cc1ccc(C(=O)NCCc3ccc(Cl)cc3)o1)C(C)(C)CCC2(C)C [Compound 642] | 19% |
| Cc1cc2c(cc1Cc1ccc(C(=O)N3CCCC3C)o1)C(C)(C)CCC2(C)C (centres unmarked) [Compound 659] | -2% |
| Cc1cc2c(cc1Cc1ccc(C(=O)N3CCN(CCOCCO)CC3)o1)C(C)(C)CCC2(C)C [Compound 686] | 37% |
| CCN(C(=O)c1ccc(Cc2cc3c(cc2C)C(C)(C)CCC3(C)C)o1)C1CCCCC1 [Compound 664] | 1% |
| Cc1cc2c(cc1Cc1ccc(C(=O)NCCN3CCOCC3)o1)C(C)(C)CCC2(C)C [Compound 523] | -4% |
| Cc1cc2c(cc1Cc1ccc(C(=O)NCCc3ccccc3)o1)C(C)(C)CCC2(C)C [Compound 545] | 28% |
| COc1cc(CCNC(=O)c2ccc(Cc3cc4c(cc3C)C(C)(C)CCC4(C)C)o2)cc(OC)c1O [Compound 506] | 3% |
| Cc1cc2c(cc1Cc1ccc(C(=O)NCC3CN(Cc4ccccc4)CCO3)o1)C(C)(C)CCC2(C)C (centres unmarked) [Compound 499] | 1% |
| CCN1CC(N(CCC(C)c2ccccc2)C(=O)c2ccc(Cc3cc4c(cc3C)C(C)(C)CCC4(C)C)o2)CN1CC (centres unmarked) [Compound 668] | 6% |
| Cc1cc2c(cc1Cc1ccc(C(=O)NC(CO)CC(C)C)o1)C(C)(C)CCC2(C)C (centres unmarked) [Compound 706] | 3% |
| Cc1cc2c(cc1Cc1ccc(C(=O)NCCCc3ccccc3)o1)C(C)(C)CCC2(C)C [Compound 469] | -9% |
| Cc1cc2c(cc1Cc1ccc(C(=O)N(CCN3CCCC3)Cc3ccccc3)o1)C(C)(C)CCC2(C)C [Compound 540] | 0% |

same assay, conditions: substrate remaining; 10 uM compound; closer to zero = closer to 100% inhibition

| Compound | S%R 10 uM mGnRHR |
| --- | --- |
| Cc1cc2c(cc1Cc1ccc(C(=O)NCCc3c[nH]cn3)o1)C(C)(C)CCC2(C)C [Compound 527] | 10% |
